Consider 4 compounds from US20250002533A1, “PEPTIDE AND ITS USES” (INSTYTUT MEDYCYNY DOSW[…] […].MIROSLAWA MOSS[…] AKADEMII …, priority 2021, published 2025).

SMILES strings stand for the structures.

For one series, the system named is rats. The following applies: cited from earlier work.
For series [1], the system named is rats with induced neuropathic pain. Description: Chronic constriction injury (CCI) neuropathic pain model, von Frey test, central (subarachnoid) administration. The class given is in vivo, rat. How it is done:
In the next step of the study, the peptide was administered by the central (subarachnoid) route to rats with induced neuropathic pain (the model of neuropathic pain of loose ligation of the sciatic nerve according to Bennett [Bennett and Xie, 1988]) according to the method described by Yaksh & Rudy (Yaksh T. R., Rudy T. A., Physiol Behav. 17:1031-1036 (1976). In the first step, the level of pain experienced by rats with chronic pain was determined in comparison to healthy rats. The results of the test are shown in FIG. 5. The behavioral test consisted of measuring the level of allodynia on the pelvic, “sick” limb, where the time or strength of the irritating stimulus acting on the bottom of the foot were tested.
In the main test of the analgesic effect of the tested peptide, a single dose of the peptide was administered by the central route at predetermined time intervals. To that end, the compound was dissolved in physiological saline solution and administered by a Hamilton syringe to the rats on days 0, 4, 7, 14 of the experiment. Earlier studies let to establish that in our case, the effective dose of peptide for rats is 2.0 nmol/kg.
In the treatment of chronic pain, pharmacotherapy is based on repeated administration of the active substance, which is often associated with the occurrence of the tolerance and undesired side effects. Therefore, in the next step of the study, the analgesic compound was administered to the rats daily for a period of 14 days, FIG. 7.

For the next series, the system named is acute pain model in rats. The experiment in a line: Analgesic effect (% MPE) after subarachnoid (i.t.) administration in an acute pain model in rats. The series is classed as in vivo, rat.
The conditions of series [2]: cited from earlier work.
A further series has as its system mu opioid receptor (MOR). The following applies: depending on the route of administration and the assay measuring analgesia; cited from earlier work.
Where [3] appears, read: daily i.t. administration for 14 days.

For the compound `C[C@@H](NC(=O)[C@@H](N)Cc1ccc(O)cc1)C(=O)NCC(=O)N[C@@H](Cc1ccccc1)C(=O)NNC(=O)[C@H](Cc1ccccc1)NC(=O)CNC(=O)[C@@H](C)NC(=O)[C@@H](N)Cc1ccc(O)cc1` [biphalin], the “effect after intravenous administration relative to morphine” value in the series on rats (animals, intravenous) is on record as “corresponds to doses of morphine”. Moreover, the “activity relative to morphine after administration into the subarachnoid space” value in the series on rats (rats, intrathecal) is reported as “more than one thousand times more active than morphine”.

Turning to `C[C@@H](NC(=O)[C@H](CO)NC(=O)[C@@H]1CCCN1C(=O)[C@H](Cc1ccc(O)cc1)NC(=O)CNC(=O)[C@H](Cc1ccccc1)NC(=O)[C@@H](C)NC(=O)[C@@H](N)Cc1ccc(O)cc1)C(=O)N[C@@H](Cc1ccccc1)C(=O)O` [peptide according to the invention, H2N-Tyr-D-Ala-Gly-Phe-Gly-Tyr-Pro-Ser-D-Ala-Phe-OH], in series [1] (setting [3]), the development of tolerance entry is reported as “did not develop tolerance”; the “general condition / undesired side effects (weight loss, hyperalgesia to touch, vocalization, hair shedding)” value was “in good general physical condition”; the “hyperalgesia after long-term administration” value is recorded as “did not induce hyperalgesia”. Also, the “analgesic effect, daily administration, fourteenth day” value in series [1] (daily i.t. administration, day 14, versus control group) was “did not induce its analgesic effect”. The “analgesic effect, daily administration, days 4 and 7” value in series [1] (daily i.t. administration, days 4 and 7, versus untreated group) was “highly analgesic”. Further, in series [1] (rats, CCI model, central route), the “effective dose of peptide for rats” value was 2.0 nmol/kg. In addition, the “analgesic effect, single dose” value in series [1] (single dose i.t. on days 0, 4, 7, 14, result on days 4, 7 and 14 of pain induction, 2.0 nmol/kg) is recorded as “highly analgesic”. Besides, the “analgesic effect at the threshold dose” value in the series on acute pain model in rats (i.t., 0.004 nmol/kg) is recorded as “active at a low but noticeable level”. In addition, the “duration of analgesic effect” value in the series with acute pain model in rats (i.t., 0.04 nmol/kg) is 30 min. Moreover, the “duration of analgesic effect” value in the series with acute pain model in rats (i.t., 0.08 nmol/kg) came to 60 min. The “activity in 60 and 120 min” value in the series with acute pain model in rats (i.t., 0.08 nmol/kg and 0.4 nmol/kg, 60 and 120 min) was 60-70 % MPE. The “analgesic potency compared to morphine” value in the series on acute pain model in rats (i.t., FIGS. 1-3) is given as “definitely more potent than morphine”. Besides, the “duration of maximum effects” value in the series on acute pain model in rats (i.t., highest doses 0.08 nmol/kg and 0.4 nmol/kg) was “up to 30 min”. Moreover, in the series with acute pain model in rats (subarachnoid, 0.04 nmol/kg, first 30 minutes), the “analgesic effect compared to dermorphin at the lower dose” value is “slightly higher in the first 30 minutes than for dermorphin”. Also, in the series with acute pain model in rats (subarachnoid, 0.4 nmol/kg, first 30 minutes), the “analgesic effect compared to dermorphin at the higher dose” value was “equipotent for the first 30 minutes”. Further, the “analgesic potency compared to dermorphin” value in the series with acute pain model in rats (subarachnoid, equivalent doses 0.04 and 0.4 nmol/kg) is reported as “as potent as dermorphin”. The “value of MPE maintained for 120 minutes after administration” value in the series on acute pain model in rats (subarachnoid, higher dose 0.4 nmol/kg, 120 min) worked out at 40%.

For `CN1CC[C@]23c4c5ccc(O)c4O[C@H]2[C@@H](O)C=C[C@H]3[C@H]1C5` [morphine, reference compound], the “equipotent dose relative to that of the peptide according to the invention” value in the series on acute pain model in rats (i.t.) is “approximately 100 times”. For the same compound, the “dose producing an effect similar to the peptide according to the invention” value in the series with acute pain model in rats (i.t., equipotent dose) is reported as 32.0 nmol/kg.

In the case of `C[C@@H](NC(=O)[C@@H](N)Cc1ccc(O)cc1)C(=O)N[C@@H](Cc1ccccc1)C(=O)NCC(=O)N[C@@H](Cc1ccc(O)cc1)C(=O)N1CCC[C@H]1C(=O)N[C@@H](CO)C(N)=O` [dermorphin, Dermorphin], in series [2], the “known stability in human or rat serum” value is 170 to 190 min. In addition, in the series with mu opioid receptor (MOR), the “potency relative to morphine” value was 750-2200 times.
